Counter-ions that a name gives are not always drawn. Like-named read-outs stand apart in the source and are kept apart here.
Experiments:
cell-free virus (HIV) = format: cell-based; settings: 1 minute irradiation
R17 = R17 inactivation at constant concentration, varying doses of UV light; format: cell-based, bacteriophage R17; settings: UV doses 1.0 to 3.0 J/cm^2, FIGS. 11-17
Experimental: Compounds of the present invention were also tested at a constant concentration for varying doses of UV light. Three sets of 1.5 mL tubes were prepared containing 0.6 mL aliquots of R17 in DMEM (prepared as described above). The compound tested was added at the desired concentration and the samples were vortexed. The samples were then irradiated at intervals of 1.0 J/cm^2, until 3.0 J/cm^2 was reached. Between each 1.0 J/cm^2 interval, 100 μL was removed from each sample and placed in the first corresponding dilution tube, then five sequential dilutions were performed for each compound tested, at all 3 irradiation doses, as described above in this example.
Then 50 μL of Hfr 3000 bacteria was added to each tube, 3 mL of top agar was added and the tube contents were vortexed. The contents of each tube was poured into its own LB plate and the plates were incubated overnight at 37° C. Plaques were counted by visual inspection the following morning.

TA1537 = assay: Ames assay, dark mutagenicity, strain TA1537
Experimental: (§1) In this example the compounds of the present invention are tested for their dark mutagenicity using an Ames assay. The procedures used for the Salmonella mutagenicity test as described in detail by Maron and Ames were followed exactly. Maron, D. M. and B. N. Ames, Mutation Research 113:173 (1983). A brief description for each procedure is given here. The tester strains TA97a, TA98, TA100, TA102, TA1537 and TA1538 were obtained from Dr. Ames. TA97a, TA98, TA1537 and TA1538 are frameshift tester strains. TA100 and TA102 are base-substitution tester strains. Upon receipt each strain was cultured under a variety of conditions to confirm the genotypes specific to the strains.
(§2) The first tests done with the strains were to determine the range of spontaneous reversion for each of the strains. With each mutagenicity experiment the spontaneous reversion of the tester strains to histidine independence was measured and expressed as the number of spontaneous revertants per plate. This served as the background controls.
(§3) For all experiments, the pre-incubation procedure was used. In this procedure one vial of each tester strain was thawed and 20 μL of this culture was added to 6 mL of Oxoid Nutrient Broth #2. This solution was allowed to shake for 10 hours at 37° C. In the pre-incubation procedure, 0.1 mL of this overnight culture was added to each of the required number of sterile test tubes. To half of the tubes 0.5 mL of a 10% S-9 solution containing Aroclor 1254 induced rat liver extract (Molecular Toxicology Inc., Annapolis, MD), and MgCl2, KCl, glucose-6-phosphate, NADP, and sodium phosphate buffer (Sigma, St. Louis. Mo.) were added. To the other half of the tubes 0.5 mL of 0.2M sodium phospate buffer, pH 7.4, was used in place of the S-9 mixture (the -S9 samples) Finally 0.1 mL of the test solution containing either 0.0.1, 0.5, 1, 5, 10, 50, 100, 250, or 500 μg/mL of the test compound was added. The 0.7 mL mixture pre-incubated while shaking for 20 minutes at 37° C. After shaking, 2 mL of molten top agar supplemented with histidine and biotin were added to the 0.7 mL mixture and immediately poured onto a minimal glucose agar plate (volume of base agar was 20 ml.). The top agar was allowed 30 minutes to solidify and then the plates were inverted and incubated for 44 hours at 37° C. After incubation the number of revertant colonies on each plate were counted. […] (“n” represents the number of replicates performed for each data point.)
(§4) Maron and Ames (1983) describe the conflicting views with regard to the statistical treatment of data generated from the test.

[1] = system: Salmonella tester strains; assay: Ames assay, dark mutagenicity, overall over tester strains; settings: base-substitution tester strains TA100 and TA102
Experimental: as §1, §2, §3, §4

TA98 = assay: Ames assay, dark mutagenicity, strain TA98
Experimental: as §1, §2, §3, §4

TA1538 = assay: Ames assay, dark mutagenicity, strain TA1538
Experimental: as §1, §2, §3, §4

TA100 = system: TA100
Experimental: as §1, §2, §3, §4

[2] = Table 8, HIV starting titer approximately 5 logs
[3] = Table 9, HIV starting titer approximately 5.4 logs

## Cc1oc2c(C)c3oc(=O)cc(C)c3cc2c1CNCCCCN [Compound 6, 4′-(6-Aminohexyl-2-aza)-4,5′,8-trimethylpsoralen Dihydrochloride]
cell-free virus (HIV); [2]
  HIV Log Kill 16 μM: 2.0 log
  HIV Log Kill 32 μM: 3.1 log
  HIV Log Kill 64 μM: >3.8 log
cell-free virus (HIV); [3]
  HIV Log Kill 16 μM: 2.1 log
  HIV Log Kill 32 μM: 3.2 log
  HIV Log Kill 64 μM: >2.8 log
R17
  R17 inactivation compared with AMT: more efficient at inactivating R17 than was AMT
TA1537; TA1537 +S9, 10 μg/plate
  revertant colonies per plate: −1
TA1537; TA1537 +S9, 50 μg/plate
  revertant colonies per plate: 17
TA1537; TA1537 +S9, 250 μg/plate
  revertant colonies per plate: 99
TA1537; TA1537 +S9, 500 μg/plate
  revertant colonies per plate: 369
TA1537; TA1537, in the presence of S9
  dose showing a response: 50 μg/plate
TA1537; TA1537 −S9, 10 μg/plate
  revertant colonies per plate: 141
TA1537; TA1537 −S9, 50 μg/plate
  revertant colonies per plate: 2010
TA1537; TA1537 −S9, 100 μg/plate
  revertant colonies per plate: 795
TA1537; TA1537 −S9, 250 μg/plate
  revertant colonies per plate: 228
TA1537; TA1537 −S9, 500 μg/plate
  revertant colonies per plate: 43
[1]
  base-substitution mutagenicity: no base substitution mutagenicity
TA98; TA98 +S9, 10 μg/plate
  revertant colonies per plate: −5
TA98; TA98 +S9, 250 μg/plate
  revertant colonies per plate: 40
TA98; TA98 +S9, 500 μg/plate
  revertant colonies per plate: 52
TA98; TA98 −S9, 10 μg/plate
  revertant colonies per plate: 12
TA98; TA98 −S9, 50 μg/plate
  revertant colonies per plate: 12
TA98; TA98 −S9, 100 μg/plate
  revertant colonies per plate: 22
TA98; TA98 −S9, 250 μg/plate
  revertant colonies per plate: 12
TA98; TA98 −S9, 500 μg/plate
  revertant colonies per plate: 9
TA1538; TA1538 +S9, 5 μg/plate
  revertant colonies per plate: 0
TA1538; TA1538 +S9, 10 μg/plate
  revertant colonies per plate: 8
TA1538; TA1538 −S9, 5 μg/plate
  revertant colonies per plate: −5
TA100; TA100 +S9, 5 μg/plate
  revertant colonies per plate: 12
TA100; TA100 +S9, 10 μg/plate
  revertant colonies per plate: −5
TA100; TA100 −S9, 5 μg/plate
  revertant colonies per plate: −32
TA100; TA100 −S9, 10 μg/plate
  revertant colonies per plate: 3

From patent US6420570B1, “Psoralen compounds” (priority 1993, dated 2002)
